Values after ≈ are worked out from the molar mass of the structure shown.
Tests used:
[1] = Aqueous solubility in PBS, pH 7.4; type: physicochemical; details: phosphate buffered saline, pH 7.4, aqueous buffer, thermodynamic from solid, pH 7.4 phosphate buffered saline, 24 hours, amorphous or crystalline material; read-out: Aqu. Solubility
Outline: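 Excess solid suspended at 0.5 mg/mL in PBS pH 7.4 and stirred 24 hours. Filtrate (0.45 μm) diluted 1:1 with ACN:H2O and quantified by UPLC against a standard curve; residual solid phase checked by XRPD and PLM.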

[2] = system: HIV-1 wild-type (R8) virus; assay: Viral KINetics in Green cells (VIKING) assay, HIV-1 replication in MT4-GFP reporter cells; type: cell-based; details: Human immunodeficiency virus 1, 10% normal human serum, MT4-GFP cells, HIV-1 wild-type (R8); read-out: Viking (10% NHS), IC50
Outline: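 MT4-GFP cells infected overnight with HIV-1 R8 at MOI ~0.01, then added to compound plates in RPMI with 10% normal human serum; 10-point 3-fold dilutions (typically 4 μM-0.2 nM). Green cells counted at ~48 h and 72 h; reproductive ratio (72 h/48 h) gave % inhibition, IC50 by 4-parameter fit.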

[3] = Plasma stability in frozen human plasma; type: in vitro ADME; details: frozen human plasma at 37° C., 0-3 hr; read-out: T1/2 Human Plasma (converted)
Method: Plasma stability of the compounds was evaluated in frozen human plasma at 37° C. in a 10% CO2 environment. The stability of the analyte was assessed by determining the percentage of drug loss over the course of 0, 0.25, 0.5, 1, and 3 hr. In addition, the appearance of Compound A was determined for the same time course. Percent of drug loss as based on ratio with internal standard. Analyte concentrations were measured by LC/MS/MS. Linear regression was performed with log transformed percent of average TO values and linear time values. The elimination rate constant (ke) was calculated from the slope of this regression line and the half-life (T½) calculated based on the elimination rate constant.

| solubility at 24 h [1] | half-life [3] | Structure (SMILES) | IC50 [2] |
| --- | --- | --- | --- |
| 285 µg/mL (≈ 752 µM) | 2.52 min | C#C[C@]1(COC(=O)C(C)C)O[C@@H](n2ccc3c(N)nc(Cl)nc32)C[C@@H]1O [Example 11, ((2R,3S,5R)-5-(4-amino-2-chloro-7H-pyrrolo[2,3-d]pyrimidin-7-yl)-2-ethynyl-3-hydroxytetrahydrofuran-2-yl)methyl isobutyrate] | 1.9 nM |
| 182 µg/mL (≈ 441 µM) | 1.56 min | C#C[C@]1(COC(=O)c2ccccc2)O[C@@H](n2ccc3c(N)nc(Cl)nc32)C[C@@H]1O [Example 9, ((2R,3S,5R)-5-(4-amino-2-chloro-7H-pyrrolo[2,3-d]pyrimidin-7-yl)-2-ethynyl-3-hydroxytetrahydrofuran-2-yl)methyl benzoate] | 2.8 nM |
